The target in one experiment is BCL2 (Homo sapiens (Human), UniProt P10415). Nature of the experiment: Molecular level activity test of anti-apoptotic protein BCL2 (HTRF, binding to Bim peptide). The conditions noted are these: HTRF, binding of BCL2 to Bim peptide; read-out: BCL2 nM (inhibitory activity, IC50). An outline of the steps:
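Disruption of the BCL2/Bim peptide interaction is detected by homogeneous time-resolved fluorescence, using anti-His and streptavidin-XL665 reagents against His-tagged protein and biotin-tagged peptide. Compound exposure lasts 1 h before reagent addition; plates then sit 4 h at room temperature.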

Another experiment concerns the target BCL2 (G101V) (Homo sapiens (Human), UniProt P10415, G101V). Nature of the experiment: Molecular level activity test of anti-apoptotic protein BCL2 (G101V) (HTRF, binding to Bim peptide). The conditions noted are these: inhibition of BCL2 (G101V) binding to Bim peptide, read-out: BCL-2 (G101V). On the procedure:
(§1) The detection of the binding ability between anti-apoptotic protein BCL2 (G101V) and pro-apoptotic protein Bim was performed using Homogeneous Time-Resolved Fluorescence technology. The reaction of this method occurred in a white shallow 384-well plate, with a total reaction volume of 10 μL. Specifically, it included 2 μL of the compound to be tested (2% DMSO), 4 μL His-tagged recombinant protein, and 4 μL Biotin-tagged BIM protein peptide. After 1 hour of reaction, 5 L of each Anti-His and streptavidin-tagged XL665 antibody diluents diluted with a detection buffer were added. After incubating at room temperature for 4 hours, the values were read using the Envision multifunctional microplate reader to detect the effect of the compound to be tested on the binding ability of BCL2 (G101V) to BIM protein peptides.
(In TR-FRET formats the signal depends on donor and acceptor labels being close together.)

The target of the next experiment is BCL2 (D103Y) (Homo sapiens (Human), UniProt P10415, D103Y). Nature of the experiment: Molecular level activity test of BCL2 (D103Y) (HTRF, binding to Bim peptide). The following applies: read-out: BCL-2 (D103Y) (nM) (inhibitory activity, IC50). As to the method: as §1, with “BCL2 (D103Y)” for “BCL2 (G101V)”, “5 μL” for “5 L”
A further experiment has as its system RS4; 11 cells. Nature of the experiment: Tumor proliferation inhibitory activity test (MTS) on RS4; 11. It is filed as cell-based. The conditions noted are these: Homo sapiens, RS4-11, 72 h, 3 days incubation. On the procedure:
The cell proliferation inhibitory ability of the compounds on RS4; 11 was tested using the MTS method. MTS is a tetrazolium blue salt compound that can be reduced by various dehydrogenases in live cell mitochondria to their respective colored methylzan products. Its color depth is highly correlated with the number of live cells in certain sensitive cell lines within a certain range. RS4; 11, RS4; 11 (BCL-2-G101V) and MOLT-4 tumor cells were cultivated separately and collected, 180 μL of cell suspension was added to each well in a 96-well cell plate, 20 μL of DMSO with a final concentration of 0.2% was added to the control cell wells, 20 μL of gradient diluted compounds were added to cell wells, and the treated cells were incubated in a 5% CO2 incubator at 37° C. for 3 days. After the incubation was completed, the reaction solution was prepared according to the MTS reagent kit, 20 μL was added per well and incubated in a 5% CO2 incubator at 37° C. for 3-4 hours. The absorbance value at 490 nm was read using an enzyme-linked immunosorbent assay (ELISA) plate, and the absorbance value at 690 nm was used as the background value, with OD490 nm-OD690 nm as the final raw data. The formula for calculating the inhibition ratio of compounds was as follows: inhibition ratio=(ODDMSO−ODCompound)/(ODDMSO−ODblank)×100%.

Another experiment has as its target BCL-XL (Homo sapiens (Human), UniProt Q07817). The experiment can be described thus: BCL-XL enzyme molecular level activity test (HTRF, binding to BIM peptide). The conditions noted are these: binding of BCL-XL to BIM peptide, values in nM, read-out: BCL-XL inhibitory activity (IC50). In outline:
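HTRF binding assay: His-tagged recombinant BCL-XL with biotin-BIM peptide and compound (2% DMSO), 1 h. Anti-His and streptavidin-XL665 detection reagents added, 4 h at room temperature. Excitation 320 nm; 665/615 nm ratio reflects binding, with no-protein background and no-compound full-binding controls.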

Sequence of BCL-XL (Q07817 whole entry): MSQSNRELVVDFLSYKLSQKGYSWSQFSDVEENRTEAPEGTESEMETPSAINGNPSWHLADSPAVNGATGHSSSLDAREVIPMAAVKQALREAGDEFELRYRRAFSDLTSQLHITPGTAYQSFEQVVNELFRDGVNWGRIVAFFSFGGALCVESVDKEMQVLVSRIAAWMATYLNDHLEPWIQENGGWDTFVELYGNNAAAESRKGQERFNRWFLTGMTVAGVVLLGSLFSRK

On to `CC(C)c1ccccc1[C@@H]1CN(Cc2ccc(CN(C)C)cc2)CCN1C1CC2(CCN(c3cc(Oc4cnc5[nH]ccc5c4)c(C(=O)NS(=O)(=O)c4ccc(NCC5(F)CCOCC5)c([N+](=O)[O-])c4)cc3F)CC2)C1` [compound 244, (R)-2-((1H-pyrrolo[2,3-b]pyrid-5-yl)oxy)-4-(2-(4-(4-((dimethylamino)methyl)benzyl)-2-(2-isopropylphenyl)piperazin-1-yl)-7-azaspiro[3.5]non-7-yl)-5-fluoro-N-((4-(((4-fluorotetrahydro-2H-pyran-4-yl)methyl)amino)-3-nitrophenyl)sulfonyl)benzamide], for which the IC50 was < 10 nM at BCL2; < 10 nM on BCL2 (G101V); < 10 nM at BCL2 (D103Y); 0.5 to 1 nM in the experiment with RS4; 11 cells; > 500 nM on BCL-XL.
As for `CC(C)c1ccccc1[C@@H]1CN(Cc2ccc(CN3CCCC3)cc2)CCN1C1CC2(CCN(c3cc(Oc4cnc5[nH]ccc5c4)c(C(=O)NS(=O)(=O)c4ccc(NCC5(F)CCOCC5)c([N+](=O)[O-])c4)cc3F)CC2)C1` [compound 245, (R)-2-((1H-pyrrolo[2,3-b]pyrid-5-yl)oxy)-5-fluoro-N-((4-(((4-fluorotetrahydro-2H-pyran-4-yl)methyl)amino)-3-nitrophenyl)sulfonyl)-4-(2-(2-(2-isopropylphenyl)-4-(4-(pyrrolidin-1-ylmethyl)benzyl)piperazin-1-yl)-7-azaspiro[3.5]non-7-yl)benzamide], the IC50 on BCL2 was < 10 nM; on BCL2 (G101V), < 10 nM; on BCL2 (D103Y), < 10 nM; with RS4; 11 cells it was 0.5 to 1 nM; on BCL-XL, > 500 nM.
`CNCc1ccc(CN2CCN(C3CC4(CCN(c5cc(Oc6cnc7[nH]ccc7c6)c(C(=O)NS(=O)(=O)c6ccc(NCC7(F)CCOCC7)c([N+](=O)[O-])c6)cc5F)CC4)C3)[C@H](c3ccccc3C(C)C)C2)cc1OC` [compound 246, (R)-2-((1H-pyrrolo[2,3-b]pyrid-5-yl)oxy)-5-fluoro-N-((4-(((4-fluorotetrahydro-2H-pyran-4-yl)methyl)amino)-3-nitrophenyl)sulfonyl)-4-(2-(2-(2-isopropylphenyl)-4-(3-methoxy-4-((methylamino)methyl)benzyl)piperazin-1-yl)-7-azaspiro[3.5]non-7-yl)benzamide]: the IC50 at BCL2 is < 10 nM; at BCL2 (G101V), < 10 nM; at BCL2 (D103Y), < 10 nM; in the experiment on RS4; 11 cells, 0.5 to 1 nM; at BCL-XL it was > 500 nM.
For `COc1cc(CN2CCN(C3CC4(CCN(c5cc(Oc6cnc7[nH]ccc7c6)c(C(=O)NS(=O)(=O)c6ccc(NCC7(F)CCOCC7)c([N+](=O)[O-])c6)cc5F)CC4)C3)[C@H](c3ccccc3C(C)C)C2)ccc1CN1CCCC1` [compound 248, (R)-2-((1H-pyrrolo[2,3-b]pyrid-5-yl)oxy)-5-fluoro-N-((4-(((4-fluorotetrahydro-2H-pyran-4-yl)methyl)amino)-3-nitrophenyl)sulfonyl)-4-(2-(2-(2-isopropylphenyl)-4-(3-methoxy-4-(pyrrolidin-1-ylmethyl)benzyl)piperazin-1-yl)-7-azaspiro[3.5]non-7-yl)benzamide], the IC50 is < 10 nM on BCL2; < 10 nM on BCL2 (G101V); < 10 nM on BCL2 (D103Y); 0.5 to 1 nM in the experiment with RS4; 11 cells; > 500 nM at BCL-XL.
Turning to `CNCc1cc(CN2CCN(C3CC4(CCN(c5cc(Oc6cnc7[nH]ccc7c6)c(C(=O)NS(=O)(=O)c6ccc(NCC7(F)CCOCC7)c([N+](=O)[O-])c6)cc5F)CC4)C3)[C@H](c3ccccc3C(C)C)C2)ccc1OC` [compound 249, (R)-2-((1H-pyrrolo[2,3-b]pyrid-5-yl)oxy)-5-fluoro-N-((4-(((4-fluorotetrahydro-2H-pyran-4-yl)methyl)amino)-3-nitrophenyl)sulfonyl)-4-(2-(2-(2-isopropylphenyl)-4-(4-methoxy-3-((methylamino)methyl)benzyl)piperazin-1-yl)-7-azaspiro[3.5]non-7-yl)benzamide], the IC50 on BCL2 is < 10 nM; on BCL2 (G101V) it was < 10 nM; at BCL2 (D103Y), < 10 nM; with RS4; 11 cells, 0.5 to 1 nM; on BCL-XL it was > 500 nM.

The record behind these values is patent publication US20250034135A1, “ANTI-APOPTOTIC PROTEIN BCL-2 INHIBITOR, PHARMACEUTICAL COMPOSITION AND USES THEREOF” (HANGZHOU HEALZEN THERAPEUTICS CO., LTD., priority 2021, published 2025).
